This is an account of results in patent publication US20260263550A1, “METHODS AND COMPOSITIONS FOR TREATING, PREVENTING, INHIBITING, AMELIORATING OR DELAYING THE ONSET OF OPHTHALMIC CONDITIONS” (Stealth BioTherapeutics Inc., priority 2021, published 2026).

The test system of data set [1] is iPSC-derived RPE cells from AMD donors. Nature of the data set: Microarray analysis of gene expression on in vitro Bruch's membrane model. The data set is classed as cell-based, human. The conditions noted are these: AMD-derived RPE on nitrite-modified ECM, 10, 100, 1000 nM, 24 hours. The method, then:
General. iPSC-derived RPE were generated from AMD patients (2 atrophic; 1 exudative) and patients with no history of AMD (n=3). To test the therapeutic efficacy of elamipretide and compound of Formula IIa, cell viability was analyzed on nitrite-modified extracellular matrix (ECM), a typical modification of aged Bruch's membrane, for 24 hrs. DNA microarrays were used to elucidate gene expression in AMD-derived RPE cultured on nitrite-modified ECM.
Microarray analysis. iPSC-derived RPE cells from AMD donors (n=3; 2 atrophic with GA, 1 exudative) were treated with drug (elamipretide or compound of Formula IIa) as described below and cultured on an in vitro Bruch's membrane model for 24 hours.
• AMD donors only (n=3 individual donors) • Cells treated with elamipretide (also referred to as “309” in the figures) at 10 nM, 100 nM and 1000 nM • Cells treated with compound of Formula IIa (also referred to as “146c” in the figures) at 10 nM, 100 nM, 1000 nM
Microarray studies using Affymetrix GeneChip Human Clariom™ S Assay were performed as described in Gong et al. (2020).

Data set [2] is described as follows: Uptake in the retina after 10-day SC dosing, LC-MS/MS. The data set is classed as in vivo, cynomolgus monkey. The conditions noted are these: male cynomolgus monkeys 1001-1003, SC 5 mg/kg/day for 10 days, left eye, approximately 24 hours after the last dose. The procedure:
Administration of Compound of Formula IIa. The test agent (compound of formula IIa) was administered daily via subcutaneous injection into the scapular and mid-dorsal areas for 10 days. The first day of dosing was designated as Day 1. Dose formulations were allowed to warm up at ambient temperature for at least 30 minutes prior to dosing, as appropriate. The animals were temporarily restrained for dose administration and were not sedated. The volume for each dose was administered over 1 (preferred) or 2 (as necessary) separated injections within the designated area. If a designated injection site was not available for a given animal on any day, the next available test site in the rotation was used. The injection area was marked as frequently as required to allow appropriate visualization of administration sites. On the last injection occasion for each quadrant, the last site of injection was circled, and the circled site was collected for necropsy.
Tissue collection, preservation, and analysis. Eye tissue (retina) was collected approximately 24 hours after the last dose on Day 10. […]
Tissue samples were prepared and analyzed by methods similar to those described above in Example 3. In brief, concentrations of test article (compound of Formula IIa) in the retina (ng/g tissue) was determined by LC-MS/MS using Formula IIb as a standard.

The test system of data set [3] is iPSC-derived RPE cells from AMD donors. Nature of the data set: Measurement of mitochondrial function (Seahorse XF Cell Mito Stress Test). The format is cell-based, human. To be noted: 10, 100, 1000 nM, treatment began 24 hours prior to assay, FIGS. 8AA-8AL. The procedure:
Measurement of mitochondrial function. Analysis of mitochondrial function was performed on live iPSC-derived RPE cells from AMD donors (n=3; 2 atrophic with GA, 1 exudative) treated with drug (elamipretide, compound of Formula IIa, or vehicle) as described below and iPSC-derived RPE cells from non-diseased controls (n=2) using the XFe96 Extracellular Flux Analyzer (Agilent Technologies, Santa Clara, California, www.agilent.com) and the Seahorse XF Cell Mito Stress Test (CMST) Kit (Agilent Technologies). iPSC-derived RPE cells were seeded onto a laminin-coated Seahorse XF plates and grown until confluent. Data were normalized by cell count. Drug treatments began 24 hours prior to assay. […]
Cells were stained with DAPI and counted by ImageJ software (National Institute of Health, Bethesda, Maryland, www.nih.gov). […] Oxygen consumption rate was detected under basal conditions followed by the sequential addition of oligomycin, carbonyl cyanide 4-(trifluoromethoxy) phenylhydrazone (FCCP), rotenone, and antimycin A. From these sequential additions, the following parameters can be derived: basal respiration, ATP production, maximal respiration, and spare respiratory capacity.

Structures are written as SMILES. Values joined by “and” are separate entries in the source; they are usually repeats but may differ in a detail not shown here. Equal entries are not always repeated.

On to `Cc1cc(O)cc(C)c1C[C@H](NC(=O)[C@H](N)CCCNC(=N)N)C(=O)N[C@@H](CCCCN)c1nc(Cc2ccccc2)no1.Cl.Cl.Cl` [Formula IIa, (R)-2-amino-N—((S)-1-(((S)-5-amino-1-(3-benzyl-1,2,4-oxadiazol-5-yl)pentyl)amino)-3-(4-hydroxy-2,6-dimethylphenyl)-1-oxopropan-2-yl)-5-guanidinopentanamide], for which the “expression of complement regulatory genes including CFHR2” value in data set [1] (FIG. 8S) is reported as “increase expression”. Moreover, the “expression of complement component genes (C1R, C3, C4A) increased by nitration of ECM” value in data set [1] (FIGS. 8L-8P) is “reverse this trend”. Moreover, the “expression of mitochondrial-related genes, such as CYP24A1 and GLS” value in data set [1] (FIGS. 8W-8Z) is on record as “altered the expression”. In data set [2], the “Concentration in Retina at Day 11 (individual subjects)” value was 382 ng/g and 336 ng/g and 126 ng/g. In data set [3], the “mitochondrial function (ATP production; basal respiration; maximal respiration; spare respiratory capacity)” value is “efficacy in improving mitochondrial function”.
